Data published in US5663207A, “Gem-dichlorocyclopropanes as antitumor agents” (priority 1995, dated 1997).
“Also recorded” adds a separate entry of the source.

Assay: Stability observed during isolation and storage
Type: physicochemical
Conditions: on concentration, drying or storage
Description: The structures of all compounds were supported by their proton NMR spectra, which were measured on either a Varian EM-360A or XL-300 spectrometer. The spectra are reported in parts per million in CDCl3 unless otherwise noted, with tetramethysilane as the internal standard. Infrared spectra were obtained from KBr pellets on a Beckman Acculab 1 spectrometer and were consistent with the assigned structures. Silica gel (for example, obtained commercially from J. T. Baker) of approximately 40 μm diameter was used for flash chromatography (STILL, W. C., KAHN, M. AND MITRA, A. (1978), "Rapid chromatographic technique for preparative separations with moderate resolutions", Journal of Organic Chemistry, 43, 2923), which was performed at 5-10 psi. Petroleum ether was of bp 30°-60° C. When necessary, solvents or reagents were dried by appropriate methods. Evaporations were carried out in vacuo on a rotary evaporator or under a stream of dry N2. Melting points were taken on a Thomas-Hoover capillary melting point apparatus and are uncorrected. Reaction progress and product purity were monitored by analytical TLC on strips of Eastman Kodak plastic-backed SiO2 60 F254 or Al2 O3 F254. Developed strips were viewed under light of 254 and 365 nm wavelengths. Elemental analyses were done by Midwest Microlab Ltd., Indianapolis, IN. Acceptable elemental results are denoted in Table I by the formula, followed by the elements analyzed. Melting points and yields of all compounds were based on pure samples unless otherwise noted, are listed in Table I. Para-Bromoanisole, p-methoxydeoxybenzoin, anisole, p-methoxybenzaldehyde, and 2,3-bis-(p-methoxyphenyl)-acrylic acid and trans-p-methoxystilbene (the olefin), were purchased from Aldrich & Co. The cyclopropanes 1,1-dichloro-cis-2-(p-hydroxyphenyl)-3-phenylcyclopropane (9), and its trans isomer 1,1-dichloro-trans-2-(p-Hydroxyphenyl)-3phenylcyclopropane (17) were prepared from Compounds 8 & 16, respectively. […] Tamoxifen was obtained from Stuart Pharmaceuticals, Division of ICI Americas, Inc., Wilmington, Del. 19897. MER 25 was obtained from the Merrell Dow Research Institute, Division of Merrell Dow Pharmaceuticals, Inc., Cincinnati, Ohio. Protein Assay Reagent, Pierce Chemical Co., Rockford, Ill. 61105. Diethylstilbestrol, β-estradiol, EDTA, DL-dithiothreitol, Sodium molybdate, and Tris (hydroxymethyl) aminomethane hydrochloride were purchased from Sigma Chemical Co., St. Louis, Mo. 63178.
Essentially, the intermediate olefin acids (Compounds 6 & 12) were obtained from a mixed Perkin and Knoevenagel-type condensation involving the reaction of p-methoxyaldehyde (Compound 4) with phenylacetic acid (Compound 5), or p-methoxyphenylacetic acid (Compound 11) in triethylamine and acetic anhydride. To prepare cis-p-methoxystilbene (Compound 7) or bis-(p-methoxy)-cis-stilbene (Compound 13). Decarboxylation of 6 & 12 with quinoline (prevents isomerizations; KLEIN, J. AND MEYER, A. Y. (1964), "The decarboxylation of α-cyano-and α-carboxycinnamic acids", Journal of Organic Chemistry, 29, 1038), and copper chromite at elevated temperature provided 7 & 13. High temperature during distillation caused 8% isomerization to the trans-isomer (15), which was isolated by column chromatography. Dichlorocarbene generation used the catalytic phase transfer method (21, 37) (used extensively in our laboratory) of 50% aqueous solution of NaOH, CHCl3 and benzyltriethylammonium chloride (TEBA) as the anion transfer agent. […]

Row | Compound | stability (in words)
1 | CC(=O)Oc1ccc([C@H]2[C@@H](c3ccccc3)C2(Cl)Cl)cc1 (relative stereo) [Compound 10, 1,1-Dichloro-cis-2-(p-acetoxyphenyl)-3-phenylcyclopropane] | stable light-yellow oil at 0 °C
2 | Oc1ccc(C2(c3ccc(O)cc3)C(Cl)(Cl)C23CCCCC3)cc1 [Compound 30, 1,1-Dichloro-2,2-bis-(p-hydroxyphenyl)-spiro[2.5]octane] | gradually turned to light-orange; also recorded: underwent a gradual color change
